Measurements as given in US6589962B1, “Alpha-hydroxy-gamma-[[(carbocyclic-or heterocyclic-substituted)amino]carbonyl]alkanamide derivatives and uses thereof” (priority 1999, dated 2003).

Tested on: HIV-1 viral constructs Q60, K-60, and V-18
Assay: Cell spread assay (HIV-1 p24 accumulation in MT-4 T-lymphoid cells), mutant viral constructs
Assay type: cell-based
Conditions: one range stated for the three mutant viral constructs together; MT-4 cells, 4 days postinfection
Description: Inhibition of the spread of HIV in cell culture was measured according to Nunberg et al., J. Virol. […] In this assay, MT-4 T-lymphoid cells were infected with HIV-1 (wild-type, unless otherwise indicated) by using a predetermined inoculum, and cultures were incubated for 24 h. At this time, ≦1% of the cells were positive by indirect immunofluorescence. Cells were then extensively washed and distributed into 96-well culture dishes. Serial twofold dilutions of inhibitor were added to the wells, and cultures were continued for 3 additional days. At 4 days postinfection, 100% of the cells in control cultures were infected. HIV-1 p24 accumulation was directly correlated with virus spread. The cell culture inhibitory concentration was defined as the inhibitor concentration in nanomoles/liter which reduced the spread of infection by at least 95%, or CIC95.

With `CC(C)(C)NC(=O)[C@@H]1CN(Cc2cccnc2)CCN1C[C@@H](O)C[C@@H](Cc1ccccc1)C(=O)N[C@H]1c2ccccc2C[C@H]1O` [indinavir, N-(2(R)-hydroxy-1(S)-indanyl)-2(R)-phenylmethyl-4-(S)-hydroxy-5-(1-(4-(3-pyridyl-methyl)-2(S)-N′-(t-butylcarboxamido)-piperazinyl))-pentaneamide] the “CIC95 against the viral constructs Q60, K-60, and V-18” value was “greater than 1000 nM”.
